Data: patent publication US20240287368A1, “COMPOSITION CONTAINING REFRIGERANT, USE OF SAME, REFRIGERATOR HAVING SAME, AND METHOD FOR OPERATING SAID REFRIGERATOR” (DAIKIN INDUSTRIES, LTD., priority 2021, published 2024)

Key:
[1] = component values used for the calculation; cited from earlier work
[2] = Occupational exposure limit (OEL) and ASHRAE toxicity class of mixed refrigerant, calculated from component OELs and mole fractions; details: ANSI/ASHRAE Standard 34-2019; for Occupational exposure limit: center composition of mixed refrigerant
Source text: In the present specification, a “toxicity class A” refrigerant means that the occupational exposure limit (OEL) of the mixed refrigerant is 400 ppm or more in accordance with the US ANSI/ASHRAE Standard 34-2019. A “toxicity class B” refrigerant means that the occupational exposure limit of the mixed refrigerant is less than 400 ppm in accordance with the US ANSI/ASHRAE Standard 34-2019.
In the present disclosure, the occupational exposure limit (OEL) of a mixed refrigerant refers to a value evaluated based on the center composition, unless otherwise specified. However, calculation is performed with the OEL of each refrigerant as follows. • R32: 1000 ppm • R152a: 1000 ppm • HFO-1132(E): 350 ppm
The OEL of the center composition of a mixed refrigerant is calculated in accordance with the following formula.
wherein an represents the OEL of each refrigerant compound, and mfn represents the mole fraction of each refrigerant compound.
The occupational exposure limit (OEL value) of each mixed refrigerant was investigated.

SMILES: F/C=C/F [0-1, trans-1,2-difluoroethylene]
- OEL of each refrigerant [1]: 350 ppm
- ASHRAE toxicity class [2]: B (the occupational exposure limit of the mixed refrigerant is less than 400 ppm)
- Occupational exposure limit [2]: 350 ppm

SMILES: CC(F)F [0-2, 1,1-difluoroethane]
- ASHRAE toxicity class [2]: A (the occupational exposure limit (OEL) of the mixed refrigerant is 400 ppm or more)
- Occupational exposure limit [2]: 1000 ppm

SMILES: FCF [0-3, difluoromethane]
- OEL of each refrigerant [1]: 1000 ppm
- ASHRAE toxicity class [2]: A (the occupational exposure limit (OEL) of the mixed refrigerant is 400 ppm or more)
- Occupational exposure limit [2]: 1000 ppm
